Laboratory results as given in patent US20230372276A1, “METHODS FOR DELIVERING MEDIUM CHAIN TRIGLYCERIDES WITH CONTROLLED PHARMACOKINETIC, SAFETY AND TOLERABILITY PROFILES” (Cerecin Inc., priority 2020, published 2023).

Legend:
[1] = both, human, in vivo
Protocol: The population for this study was 12 healthy older males and females age 50 and above.
Following a Screening period of up to 28 days, eligible subjects arrived at the clinical research unit (CRU) for Check-in on Day −1. On Day 1, subjects had predose samples of plasma serum taken for PK. […] Dose 2 was administered 30 minutes after completion of a standard lunch.
Subjects were to gradually increase the dose according to the titration scheme, aiming to reach a dose of 75 g twice a day.
On Days 15 and 21, subjects had predose and postdose (1, 1.5, and 2 hours) samples of plasma taken for PK. On Day 24, subjects had predose samples of plasma taken for PK. After the first dose on Day 24, 24-hour PK sampling was done to measure ketone body levels (βHB, AcAc). Check-out was on Day 25 following completion of scheduled assessments.
Immediately after dosing, the remaining treatment in the container was rinsed with 60 mL of water and administered to the subject for a total of approximately 300 mL of dosing liquid consumed for each dosing.
Cmax and Tmax were calculated for total ketones, βHB, and AcAc for the Day 15 and Day 21 PK sampling.
The plasma concentrations of βHB, AcAc, and total ketones were listed and summarized by study day and time point for all subjects in the PK Population. Mean and individual concentration-time profiles for Days 15, 21, and 24 were presented on linear and semi-log scales. Linear mean plots were presented with and without SD. Plasma βHB, AcAc and total ketones PK parameters were listed and summarized by study day and dose for all subjects in the PK Population. No inferential statistics were performed on the PK data.

[2] = Ethnicity analysis of total ketone exposure, Chinese vs Caucasian (Study 2 parts combined); type: in vivo, human (healthy young male Caucasian and Asian volunteers); details: healthy participants
Protocol: The present example investigates the pharmacokinetics, safety and tolerability of tricaprilin in healthy young male Caucasian and Asian volunteers to understand and elucidate any differences between the two populations and any identify any ethnic sensitivities. In this example, data from several studies were analyzed to evaluate any ethnicity differences in safety and tolerability of tricaprilin. The analyzed studies included Caucasian and Asian (Chinese) subjects and several analyses were conducted to compare the effects in Caucasians vs Asian. Ethnic Chinese participants were defined as all four grandparents being Chinese. The level of total ketones were quantitated using a validated LC-MS/MS bioanalytical assay.
Methods: Study 1 was a food effect study of a spray dried formulation of tricaprilin (AC-SD-01), conducted in healthy young males. […] Both of these studies included Caucasian and Asian (Chinese) subjects and several analyses were conducted to compare the effects in Caucasians vs Chinese. To explore whether ethnicity affects total ketone body exposure after tricaprilin administration, the pharmacokinetic parameters AUC0-t and Cmax from Study 2 were examined and grouped by an individual's ethnicity (Chinese or Caucasian).

With `CCCCCCCC(=O)OCC(COC(=O)CCCCCCC)OC(=O)CCCCCCC` [tricaprilin] the “increase of geometric mean Cmax for AcAc” value [1] was 2.3 fold, the “increase of geometric mean Cmax for total ketones” value [1] was 2.7 fold and the “increase of geometric mean Cmax for βHB” value [1] was 2.9 fold. For the same compound, the “Exposure to total ketones, ethnic Chinese compared to Caucasians” value [2] was “no different”.
